The results in this text go back to publication PMC8157871, “Synthesis, Anticancer Screening of Some Novel Trimethoxy Quinazolines and VEGFR2, EGFR Tyrosine Kinase Inhibitors Assay; Molecular Docking Studies” (Molecules, 2021).

Data set [1] deals with MDA cells. In words: Cytotoxicity against MDA cell line. Particulars: read-out: Cytotoxicity IC50 MDA.
Data set [2] relates to Hela cells. As to the kind of experiment: Cytotoxicity against Hela cell line. The note with it: read-out: Cytotoxicity IC50 Hela.
Data set [3] relates to A549 cell line. In words: Cytotoxicity against A549 cell line. The note with it: read-out: Cytotoxicity IC50 A549.
Data set [4] deals with EGFR (Homo sapiens, UniProt P00533). In words: EGFR enzyme inhibitory activity.
EGFR, sequence (P00533 25-1210): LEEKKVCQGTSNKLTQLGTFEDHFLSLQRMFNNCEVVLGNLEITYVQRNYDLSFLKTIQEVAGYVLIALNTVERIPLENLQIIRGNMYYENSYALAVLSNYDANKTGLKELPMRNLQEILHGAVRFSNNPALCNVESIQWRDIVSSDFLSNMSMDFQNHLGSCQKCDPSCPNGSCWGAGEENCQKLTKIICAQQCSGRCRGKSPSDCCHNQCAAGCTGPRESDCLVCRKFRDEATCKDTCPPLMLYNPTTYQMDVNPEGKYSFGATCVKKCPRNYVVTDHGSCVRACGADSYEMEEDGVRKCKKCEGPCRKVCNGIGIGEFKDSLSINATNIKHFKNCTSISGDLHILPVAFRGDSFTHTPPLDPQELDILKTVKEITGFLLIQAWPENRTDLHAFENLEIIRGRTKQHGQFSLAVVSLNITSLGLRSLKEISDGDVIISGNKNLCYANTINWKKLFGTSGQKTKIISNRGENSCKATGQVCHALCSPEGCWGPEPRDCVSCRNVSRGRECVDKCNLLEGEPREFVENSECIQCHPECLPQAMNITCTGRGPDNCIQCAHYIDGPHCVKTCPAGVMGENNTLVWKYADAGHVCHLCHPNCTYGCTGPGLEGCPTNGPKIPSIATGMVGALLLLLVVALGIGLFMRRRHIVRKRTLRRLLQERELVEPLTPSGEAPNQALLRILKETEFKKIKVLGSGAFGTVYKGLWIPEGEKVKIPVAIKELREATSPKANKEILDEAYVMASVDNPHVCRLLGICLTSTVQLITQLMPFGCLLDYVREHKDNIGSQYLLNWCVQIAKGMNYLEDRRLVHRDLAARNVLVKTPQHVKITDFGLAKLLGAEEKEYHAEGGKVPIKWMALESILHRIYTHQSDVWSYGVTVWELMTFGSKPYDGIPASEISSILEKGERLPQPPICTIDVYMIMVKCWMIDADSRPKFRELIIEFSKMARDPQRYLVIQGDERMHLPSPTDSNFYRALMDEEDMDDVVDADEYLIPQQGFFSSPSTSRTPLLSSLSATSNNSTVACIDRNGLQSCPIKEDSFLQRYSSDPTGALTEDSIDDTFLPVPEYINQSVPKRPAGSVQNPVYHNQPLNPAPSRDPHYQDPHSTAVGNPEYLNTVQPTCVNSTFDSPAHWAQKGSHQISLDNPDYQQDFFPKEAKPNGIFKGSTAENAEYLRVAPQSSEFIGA
Experimental: (§1) The synthesized compounds were evaluated for anticancer activity by adapting a reported procedure [29, 30, 31, 32, 33] using two enzymes, VEGFR2 and EGFR, as well as three cell lines.
Data set [5] has as its target VEGFR2 (Homo sapiens, UniProt P35968). In words: VEGFR2 enzyme inhibitory activity.
Experimental: as §1
Setting [6] is: relative to docetaxel, from IC50 values.

VEGFR2, sequence (P35968 20-1356): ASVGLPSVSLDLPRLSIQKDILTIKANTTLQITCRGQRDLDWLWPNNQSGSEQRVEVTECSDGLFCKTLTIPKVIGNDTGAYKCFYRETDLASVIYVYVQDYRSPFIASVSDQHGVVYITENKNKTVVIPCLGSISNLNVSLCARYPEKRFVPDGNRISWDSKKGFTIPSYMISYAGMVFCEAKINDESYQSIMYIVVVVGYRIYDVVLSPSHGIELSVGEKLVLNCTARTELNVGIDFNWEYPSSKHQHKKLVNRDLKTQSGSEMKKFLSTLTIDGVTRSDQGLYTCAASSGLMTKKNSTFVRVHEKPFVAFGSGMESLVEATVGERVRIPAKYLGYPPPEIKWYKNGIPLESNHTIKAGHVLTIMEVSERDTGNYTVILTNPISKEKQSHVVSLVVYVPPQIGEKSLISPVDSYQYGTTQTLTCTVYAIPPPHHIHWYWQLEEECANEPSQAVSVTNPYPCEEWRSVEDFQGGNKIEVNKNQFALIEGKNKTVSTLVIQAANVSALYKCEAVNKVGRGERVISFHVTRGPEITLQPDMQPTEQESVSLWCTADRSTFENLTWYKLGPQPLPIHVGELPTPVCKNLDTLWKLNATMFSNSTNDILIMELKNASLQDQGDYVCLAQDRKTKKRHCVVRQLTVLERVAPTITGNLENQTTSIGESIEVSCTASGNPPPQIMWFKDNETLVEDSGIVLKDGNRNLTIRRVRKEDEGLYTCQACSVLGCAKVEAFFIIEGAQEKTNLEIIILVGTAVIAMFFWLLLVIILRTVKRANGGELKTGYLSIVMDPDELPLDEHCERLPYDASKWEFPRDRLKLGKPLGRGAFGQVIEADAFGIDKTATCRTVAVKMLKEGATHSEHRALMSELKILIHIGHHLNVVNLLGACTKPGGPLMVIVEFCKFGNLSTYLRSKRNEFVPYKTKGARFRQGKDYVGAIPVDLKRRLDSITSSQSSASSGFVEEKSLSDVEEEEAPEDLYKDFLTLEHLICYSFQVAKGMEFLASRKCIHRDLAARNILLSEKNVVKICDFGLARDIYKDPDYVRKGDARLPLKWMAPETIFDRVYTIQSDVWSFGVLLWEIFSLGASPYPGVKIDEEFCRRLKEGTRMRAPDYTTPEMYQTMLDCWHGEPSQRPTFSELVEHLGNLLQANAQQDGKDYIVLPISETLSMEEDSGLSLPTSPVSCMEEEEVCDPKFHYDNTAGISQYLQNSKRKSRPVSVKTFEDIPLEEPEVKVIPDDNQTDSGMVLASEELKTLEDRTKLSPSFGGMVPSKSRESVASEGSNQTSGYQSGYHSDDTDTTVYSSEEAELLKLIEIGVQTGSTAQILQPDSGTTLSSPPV

For orientation: melting point means the temperature, or range, at which the solid turns liquid. Broadly, the IC50 is the point on the concentration scale where inhibition reaches its midpoint. Regarding `COc1cccc(C(=O)NNS(=O)(=O)c2ccccc2)c1NC(=O)c1cc(OC)c(OC)c(OC)c1` [Compound 8, 3-methoxy-2-(trimethoxybenzamido)-N-[benzenesulphonyl]benzoylhydrazide], the melting point is 263 to 265 °C. Also, the concentration for half-maximal inhibition (IC50) in data set [1] turned out to be 11.7 ± 0.3 µM. The IC50 in data set [2] was found to be 4.94 ± 0.13 µM. Further, the IC50 in data set [3] amounted to 13 ± 0.3 µM.

Compound `COc1cc(-c2nc3c(OC)cccc3c(=O)o2)cc(OC)c1OC` [Compound 3, 8-methoxy-2-trimethoxyphenyl-4H-benzo[d](1,3)oxazin-4-one] returned a melting point of 182 to 184 °C. Also, the IC50 in data set [1] is 17.4 ± 0.5 µM. Also, the IC50 in data set [2] turned out to be 66.5 ± 1.74 µM. Besides, the IC50 in data set [3] was 43.6 ± 1.1 µM.

For the compound `COc1cccc(C(N)=O)c1NC(=O)c1cc(OC)c(OC)c(OC)c1` [Compound 6], the melting point lay in the range of 132 to 134 °C. This compound yielded an IC50 in data set [4] of 0.106 ± 0.00222 µM. In addition, in data set [4] (setting [6]), the “inhibitory activity for enzyme EGFR compared to the reference drug” value was about 53%. Besides, the IC50 in data set [5] was determined as 0.0981 ± 0.00293 µM. In addition, the “inhibitory activity for enzyme VEGFR2 compared to the reference drug” value in data set [5] (setting [6]) is recorded as about 91%. In data set [1], the IC50 came to 0.79 ± 0.04 µM. For the same compound, the IC50 in data set [2] was determined as 2.8 ± 0.07 µM. The IC50 in data set [3] was found to be 81 ± 2.1 µM.

Turning to `COc1cc(-c2nc3c(OC)cccc3c(=O)[nH]2)cc(OC)c1OC` [Compound 5, 8-methoxy-2-trimethoxyphenylquanazoline-4(3H)-one], the melting point lay within 242 to 244 °C. Further, the IC50 in data set [1] was found to be 4.39 ± 0.1 µM. The IC50 in data set [2] amounted to 12.9 ± 0.34 µM. For the same compound, the IC50 in data set [3] was found to be 26.3 ± 0.7 µM.

Take `CC(=O)O[C@@]12CO[C@@H]1C[C@H](O)[C@@]1(C)C(=O)[C@H](O)C3=C(C)[C@@H](OC(=O)[C@H](O)[C@@H](NC(=O)OC(C)(C)C)c4ccccc4)C[C@@](O)([C@@H](OC(=O)c4ccccc4)[C@H]21)C3(C)C` [Docetaxel, docetaxel, reference compound]: the IC50 in data set [4] was found to be 0.0561 ± 0.00117 µM; in data set [5], 0.0893 ± 0.00267 µM; in data set [1] it was 3.98 ± 0.08 µM; in data set [2] it was 9.65 ± 0.2 µM; in data set [3], 10.8 ± 0.23 µM.

The compound `COc1cc(-c2nc3c(OC)cccc3c(=O)n2N)cc(OC)c1OC` [Compound 4, 3-amino-8-methoxy-2-trimethoxyphenylquanazoline-4(3H)-one] came in with a melting point of 182 to 184 °C. Further, the 50% inhibitory concentration (IC50) in data set [1] was 4.12 ± 0.1 µM. Also, the IC50 in data set [2] is 29.8 ± 0.78 µM. Moreover, the IC50 in data set [3] came to 18 ± 0.5 µM.

With `COc1cc(-c2nc3c(OC)cccc3c(=O)n2NS(=O)(=O)c2ccccc2)cc(OC)c1OC` [Compound 9, 3-benzenesulfamoyl-8-methoxy-2-trimethoxyphenylquanazoline-4(3H)-one], the melting point lay in the range of 244 to 246 °C. Besides, the IC50 in data set [1] was 3.42 ± 0.1 µM. In addition, the IC50 in data set [2] was determined as 11.7 ± 0.31 µM. For the same compound, the IC50 in data set [3] was determined as 19.9 ± 0.5 µM.

The compound `COc1cc(-c2nc3c(OC)cccc3c(=O)n2-c2cc(OC)c(OC)c(OC)c2)cc(OC)c1OC` [Compound 11] came in with a melting point of 237 to 239 °C. For the same compound, the IC50 in data set [1] came out at 7.06 ± 0.2 µM. Moreover, in data set [2], the IC50 was 12 ± 0.31 µM. In addition, in data set [3], the IC50 worked out at 4.03 ± 0.1 µM.

Compound `COc1cc(-c2nc3c(OC)cccc3c(=O)n2C)cc(OC)c1OC` [Compound 10, 3-methyl-8-methoxy-2-trimethoxyphenylquanazoline-4(3H)-one] returned a melting point of 218 to 220 °C. Further, the half-maximal inhibitory concentration (IC50) in data set [1] was 7.77 ± 0.2 µM. Further, in data set [2], the IC50 turned out to be 3.98 ± 0.1 µM. The IC50 in data set [3] came to 12.3 ± 0.3 µM.

In turn, `COc1cccc(C(=O)NN)c1NC(=O)c1cc(OC)c(OC)c(OC)c1` [Compound 7, 3-methoxy-2-(trimethoxybenzamido)-benzoylhydrazide] registered a melting point of 195 to 197 °C. In data set [1], the IC50 was 9 ± 0.2 µM. Also, the IC50 in data set [2] was 18.7 ± 0.49 µM. For the same compound, the IC50 in data set [3] was determined as 46.3 ± 1.2 µM.
